Patent US10131652B2, “Pyrimidinyloxy benzene derivatives as herbicides” (E. I. DU PONT DE NEMOURS AND COMPANY, priority 2014, dated 2018)

How the values were obtained:
Assay in all cases: Test F pre-/postemergence plant response
Assay type in all cases: in vivo
Conditions in all cases: scale 0 to 100
[1] = tested on: johnsongrass (Sorghum halepense)
How it was run: (§1)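 In a greenhouse, compounds carried in a non-phytotoxic surfactant-containing solvent mixture were applied to soil at planting and to young 1- to 4-leaf plants. About two to three weeks (14 to 21 days) afterward, each species was compared with controls and rated visually from 0 to 100.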

[2] = tested on: Italian ryegrass (Lolium multiflorum)
How it was run: as §1

[3] = tested on: waterhemp (common waterhemp, Amaranthus rudis)
How it was run: as §1

[4] = tested on: lambsquarters (Chenopodium album)
How it was run: as §1

[5] = tested on: ragweed (common ragweed, Ambrosia elatior)
How it was run: as §1

[6] = tested on: green foxtail (Setaria viridis)
How it was run: as §1

[7] = tested on: dayflower (Virginia (VA) dayflower, Commelina virginica)
How it was run: as §1

[8] = tested on: large (Lg) crabgrass (Digitaria sanguinalis)
How it was run: as §1

[9] = tested on: barnyardgrass (Echinochloa crus-galli)
How it was run: as §1

[10] = tested on: yellow nutsedge (Cyperus esculentus)
How it was run: as §1

[11] = tested on: nightshade (eastern black nightshade, Solanum ptycanthum)
How it was run: as §1

[12] = tested on: Brazilian crabgrass (Digitaria horizontalis)
How it was run: as §1

[13] = tested on: hairy beggarticks (Bidens pilosa)
How it was run: as §1

[14] = tested on: morningglory (Ipomoea coccinea)
How it was run: as §1

[15] = tested on: wild poinsettia (Euphorbia heterophylla)
How it was run: as §1

[16] = tested on: sandbur (southern sandbur, Cenchrus echinatus)
How it was run: as §1

Fc1ccc(Oc2ncc(Cl)cn2)c(-c2cc(C(F)F)on2)c1Cl [Compound 96]
60: Plant response rating, Johnsongrass ([1]; 31 g ai/ha Preemergence) | Plant response rating, Poinsettia, Wild ([15]; 62 g ai/ha Postemergence)
90: Plant response rating, Waterhemp ([3]; 31 g ai/ha Postemergence) | Plant response rating, Nightshade ([11]; 125 g ai/ha Preemergence)
10: Plant response rating, Ryegrass, Italian ([2]; 125 g ai/ha Postemergence) | Plant response rating, Barnyardgrass ([9]; 31 g ai/ha Postemergence) | Plant response rating, Sandbur ([16]; 31 g ai/ha Preemergence)
98: Plant response rating, Johnsongrass ([1]; 125 g ai/ha Preemergence)
25: Plant response rating, Foxtail, Green ([6]; 16 g ai/ha Preemergence) | Plant response rating, Foxtail, Green ([6]; 125 g ai/ha Preemergence) | Plant response rating, Crabgrass, Brazil ([12]; 125 g ai/ha Postemergence) | Plant response rating, Morningglory ([14]; 125 g ai/ha Preemergence) | Plant response rating, Poinsettia, Wild ([15]; 125 g ai/ha Preemergence)
35: Plant response rating, Ragweed ([5]; 125 g ai/ha Preemergence) | Plant response rating, Foxtail, Green ([6]; Preemergence) | Plant response rating, Morningglory ([14]; 16 g ai/ha Preemergence) | Plant response rating, Morningglory ([14]; 31 g ai/ha Preemergence) | Plant response rating, Morningglory ([14]; Preemergence)
20: Plant response rating, Johnsongrass ([1]; 16 g ai/ha Preemergence) | Plant response rating, Ragweed ([5]; 31 g ai/ha Postemergence) | Plant response rating, Ragweed ([5]; 31 g ai/ha Preemergence) | Plant response rating, Ragweed ([5]; 62 g ai/ha Postemergence) | Plant response rating, Dayflower, VA ([7]; 16 g ai/ha Postemergence) | Plant response rating, Dayflower, VA ([7]; 125 g ai/ha Preemergence) | Plant response rating, Barnyardgrass ([9]; 62 g ai/ha Postemergence) | Plant response rating, Barnyardgrass ([9]; 125 g ai/ha Postemergence) | Plant response rating, Crabgrass, Brazil ([12]; 62 g ai/ha Postemergence) | Plant response rating, Beggarticks ([13]; 125 g ai/ha Preemergence)
100: Plant response rating, Waterhemp ([3]; 31 g ai/ha Preemergence) | Plant response rating, Waterhemp ([3]; 62 g ai/ha Postemergence) | Plant response rating, Waterhemp ([3]; 125 g ai/ha Preemergence) | Plant response rating, Waterhemp ([3]; Preemergence) | Plant response rating, Lambsquarters ([4]; 31 g ai/ha Preemergence) | Plant response rating, Lambsquarters ([4]; 125 g ai/ha Preemergence) | Plant response rating, Lambsquarters ([4]; Preemergence)
95: Plant response rating, Waterhemp ([3]; 125 g ai/ha Postemergence) | Plant response rating, Crabgrass, Large ([8]; 125 g ai/ha Preemergence)
40: Plant response rating, Waterhemp ([3]; 16 g ai/ha Preemergence) | Plant response rating, Ragweed ([5]; 125 g ai/ha Postemergence) | Plant response rating, Dayflower, VA ([7]; 31 g ai/ha Postemergence) | Plant response rating, Beggarticks ([13]; 62 g ai/ha Postemergence) | Plant response rating, Beggarticks ([13]; 125 g ai/ha Postemergence) | Plant response rating, Sandbur ([16]; Preemergence)
0: Plant response rating, Ryegrass, Italian ([2]; 16 g ai/ha Postemergence) | Plant response rating, Ryegrass, Italian ([2]; 16 g ai/ha Preemergence) | Plant response rating, Ryegrass, Italian ([2]; 31 g ai/ha Postemergence) | Plant response rating, Ryegrass, Italian ([2]; 31 g ai/ha Preemergence) | Plant response rating, Ryegrass, Italian ([2]; 62 g ai/ha Postemergence) | Plant response rating, Ragweed ([5]; 16 g ai/ha Preemergence) | Plant response rating, Dayflower, VA ([7]; 16 g ai/ha Preemergence) | Plant response rating, Dayflower, VA ([7]; 31 g ai/ha Preemergence) | Plant response rating, Dayflower, VA ([7]; 62 g ai/ha Preemergence) | Plant response rating, Crabgrass, Large ([8]; 16 g ai/ha Preemergence) | Plant response rating, Barnyardgrass ([9]; 16 g ai/ha Postemergence) | Plant response rating, Barnyardgrass ([9]; 16 g ai/ha Preemergence) | Plant response rating, Barnyardgrass ([9]; 31 g ai/ha Preemergence) | Plant response rating, Barnyardgrass ([9]; 62 g ai/ha Preemergence) | Plant response rating, Barnyardgrass ([9]; 125 g ai/ha Preemergence) | Plant response rating, Nutsedge, Yellow ([10]; 16 g ai/ha Preemergence) | Plant response rating, Nutsedge, Yellow ([10]; 31 g ai/ha Preemergence) | Plant response rating, Nutsedge, Yellow ([10]; 125 g ai/ha Preemergence) | Plant response rating, Nutsedge, Yellow ([10]; Preemergence) | Plant response rating, Nightshade ([11]; 16 g ai/ha Preemergence) | Plant response rating, Nightshade ([11]; 31 g ai/ha Preemergence) | Plant response rating, Crabgrass, Brazil ([12]; 16 g ai/ha Postemergence) | Plant response rating, Crabgrass, Brazil ([12]; 16 g ai/ha Preemergence) | Plant response rating, Crabgrass, Brazil ([12]; 31 g ai/ha Preemergence) | Plant response rating, Crabgrass, Brazil ([12]; 62 g ai/ha Preemergence) | Plant response rating, Beggarticks ([13]; 16 g ai/ha Postemergence) | Plant response rating, Beggarticks ([13]; 16 g ai/ha Preemergence) | Plant response rating, Beggarticks ([13]; 31 g ai/ha Preemergence) | Plant response rating, Beggarticks ([13]; 62 g ai/ha Preemergence) | Plant response rating, Poinsettia, Wild ([15]; 16 g ai/ha Postemergence) | Plant response rating, Poinsettia, Wild ([15]; 16 g ai/ha Preemergence) | Plant response rating, Poinsettia, Wild ([15]; 31 g ai/ha Preemergence) | Plant response rating, Poinsettia, Wild ([15]; Preemergence) | Plant response rating, Sandbur ([16]; 16 g ai/ha Postemergence) | Plant response rating, Sandbur ([16]; 16 g ai/ha Preemergence) | Plant response rating, Sandbur ([16]; 31 g ai/ha Postemergence) | Plant response rating, Sandbur ([16]; 62 g ai/ha Postemergence) | Plant response rating, Sandbur ([16]; 125 g ai/ha Postemergence)
70: Plant response rating, Dayflower, VA ([7]; 62 g ai/ha Postemergence) | Plant response rating, Dayflower, VA ([7]; 125 g ai/ha Postemergence)
65: Plant response rating, Crabgrass, Large ([8]; 62 g ai/ha Preemergence) | Plant response rating, Nightshade ([11]; Preemergence)
50: Plant response rating, Johnsongrass ([1]; Preemergence) | Plant response rating, Ragweed ([5]; Preemergence) | Plant response rating, Poinsettia, Wild ([15]; 125 g ai/ha Postemergence)
75: Plant response rating, Waterhemp ([3]; 16 g ai/ha Postemergence)
15: Plant response rating, Ragweed ([5]; 16 g ai/ha Postemergence)
5: Plant response rating, Lambsquarters ([4]; 16 g ai/ha Preemergence) | Plant response rating, Crabgrass, Brazil ([12]; 31 g ai/ha Postemergence) | Plant response rating, Crabgrass, Brazil ([12]; 125 g ai/ha Preemergence)
30: Plant response rating, Ryegrass, Italian ([2]; 125 g ai/ha Preemergence) | Plant response rating, Ryegrass, Italian ([2]; Preemergence) | Plant response rating, Foxtail, Green ([6]; 31 g ai/ha Preemergence) | Plant response rating, Crabgrass, Large ([8]; 31 g ai/ha Preemergence) | Plant response rating, Beggarticks ([13]; 31 g ai/ha Postemergence) | Plant response rating, Poinsettia, Wild ([15]; 31 g ai/ha Postemergence) | Plant response rating, Sandbur ([16]; 125 g ai/ha Preemergence)
